# Assay results from US20030087887A1, “Novel fusidic acid derivatives” (priority 2001, published 2003).
# What was measured:
# Type in all cases: cell-based
# S. aureus CJ234F = test: MIC, agar diffusion, S. aureus CJ234F; settings: Staphylococcus aureus; S. aureus CJ234F (MRSA, Fus. resistant); read-out: in vitro activities MIC
# Description: (§1) In vitro investigations have shown a relatively high potency of compounds of the invention against all bacteria including gram-positive and gram-negative strains (Staphylococci, Streptococci, Corynebacteriae, Mycobacteriae, Proteus, Propionibacterium, Pseudomonas, Neisseriae, E. coli) and fungal strains (Candida and Aspergillus). […] In addition, the studies of post-antibiotic effects point towards a strong bactericidal effect of the compounds of the invention. […] The potency of new polyaminated fusidic acid analogues is estimated by comparing the inhibition of growth of different microorganisms produced by known concentrations of the analogue to be examined and a reference compound such as fusidic acid. The microbiological assay set up is in agreement with the European Pharmacopoeia 3rd edition (1997). It is an agar diffusion method where the same volume of the tested solution is added to cavities in agar. The inhibition zones are function of the concentration of the fusidic acid analogue used. All assays are run with fusidic acid as reference substance.
# S. aureus CJ234R = test: MIC, agar diffusion, S. aureus CJ234R; settings: Staphylococcus aureus; S. aureus CJ234R (MRSA, Rifampicin resistant); read-out: in vitro activities MIC
# Description: as §1
# S. epidermis CK5 = test: MIC, agar diffusion, S. epidermis CK5; settings: Staphylococcus epidermidis, read-out: in vitro activities MIC
# Description: as §1
# S. aureus CJ200 = test: MIC, agar diffusion, S. aureus CJ200; settings: Staphylococcus aureus, read-out: in vitro activities MIC
# Description: as §1
# [1] = system: Streptococcus pyogenes EC88; test: MIC, agar diffusion, Streptococcus pyogenes EC88; settings: read-out: in vitro activities MIC
# Description: as §1
# S. aureus CJ247 = test: MIC, agar diffusion, S. aureus CJ247; settings: Staphylococcus aureus, read-out: in vitro activities MIC
# Description: as §1
# [2] = system: Propionibacterium acnes FN33; test: MIC, agar diffusion, Propionibacterium acnes FN33; settings: Cutibacterium acnes, read-out: in vitro activities MIC
# Description: as §1
# [3] = system: Streptococcus faecium EI19; test: MIC, agar diffusion, Streptococcus faecium EI19; settings: Enterococcus faecium; Streptococcus faecium EI19 (Penicillin resistant); read-out: in vitro activities MIC
# Description: as §1
# [4] = system: Saccaromyces cervisiae ZZ7; test: MIC, agar diffusion, Saccaromyces cervisiae ZZ7; settings: Saccharomyces cerevisiae, read-out: in vitro activities MIC
# Description: as §1
# [5] = system: Pseudomonas aeruginosa BA17; test: MIC, agar diffusion, Pseudomonas aeruginosa BA17; settings: read-out: in vitro activities MIC
# Description: as §1
# S. aureus N6 = test: MIC, agar diffusion, S. aureus N6; settings: Staphylococcus aureus; S. aureus N6 (Fus. resistant); read-out: in vitro activities MIC
# Description: as §1
# Asbergillus niger ZM35 = test: MIC, agar diffusion, Asbergillus niger ZM35; settings: Aspergillus niger, read-out: in vitro activities MIC
# Description: as §1
# Candida albicans ZA = test: MIC, agar diffusion, Candida albicans ZA; settings: read-out: in vitro activities MIC
# Description: as §1
# E. coli HA165 = test: MIC, agar diffusion, E. coli HA165; settings: Escherichia coli, read-out: in vitro activities MIC
# Description: as §1
# [6] = system: Corynebacterium xerosis FF; test: MIC, agar diffusion, Corynebacterium xerosis FF; settings: read-out: in vitro activities MIC
# Description: as §1
SMILES,MIC (S. aureus CJ234F),MIC (S. aureus CJ234R),MIC (S. epidermis CK5),MIC (S. aureus CJ200),MIC [1],MIC (S. aureus CJ247),MIC [2],MIC [3],MIC [4],MIC [5],MIC (S. aureus N6),MIC (Asbergillus niger ZM35),MIC (Candida albicans ZA),MIC (E. coli HA165),MIC [6]
"C/C(=C\C(=O)OCCCCCCCCC(=O)O)C[C@@H]1OC[C@H](C[C@@H]2O[C@H]2[C@@H](C)[C@H](C)O)[C@@H](O)[C@H]1O [Mupirocin, reference compound]",0.5 µg/mL,1 µg/mL,0.04 µg/mL,1 µg/mL,1 µg/mL,0.5 µg/mL,,,,,,,,,
"CC(=O)NC[C@H]1CN(c2ccc(N3CCOCC3)c(F)c2)C(=O)O1 [Linezolid, reference compound]",1 µg/mL,16 µg/mL,0.25 µg/mL,4 µg/mL,4 µg/mL,1 µg/mL,1 µg/mL,,,,,,,,
CC(=O)O[C@H]1C[C@@]2(C)C(CCC3[C@@]4(C)CC[C@@H](O)[C@@H](C)C4CC[C@@]32C)[C@@H]1[C@H](CCCC(C)C)C(=O)NCCNCCCNCCN (stereo partly drawn) [Compound 133],4 µg/mL,,4 µg/mL,4 µg/mL,4 µg/mL,4 µg/mL,4 µg/mL,4 µg/mL,32 µg/mL,16 µg/mL,4 µg/mL,32 µg/mL,32 µg/mL,16 µg/mL,4 µg/mL
"CC(C)CCCC(C(=O)NCCCCNCCCN)[C@H]1CC[C@@]2(C)C1CCC1[C@@]3(C)CC[C@@H](O)[C@@H](C)C3CC[C@@]12C (stereo partly drawn) [Compound 154, 21-N-{4′-[(3′-aminopropyl)amino]butyl}-11-desoxy-16-desacetoxy-17S,20,24,25-tetrahydrofusid-21-amide]",4 µg/mL,,1 µg/mL,4 µg/mL,,4 µg/mL,,,> 125 µg/mL,16 µg/mL,4 µg/mL,> 125 µg/mL,> 125 µg/mL,8 µg/mL,0.5 µg/mL
"CC(C)CCCC(C(=O)NCCNCCCNCCN)[C@H]1CC[C@@]2(C)C1CCC1[C@@]3(C)CC[C@@H](O)[C@@H](C)C3CC[C@@]12C (stereo partly drawn) [Compound 152, 21-N-[2′-({3′-[(2′-aminoethyl)amino]propyl}amino)ethyl]-11-desoxy-16-desacetoxy-17S,20,24,25-tetrahydrofusid-21-amide]",4 µg/mL,,2 µg/mL,4 µg/mL,,4 µg/mL,,,> 125 µg/mL,8 µg/mL,4 µg/mL,> 125 µg/mL,> 125 µg/mL,4 µg/mL,1 µg/mL
"CC(=O)O[C@H]1C[C@@]2(C)C(C[C@@H](O)C3[C@@]4(C)CC[C@@H](O)[C@@H](C)C4CC[C@@]32C)[C@@H]1[C@H](CCCC(C)C)C(=O)NCCCCNCCCN (stereo partly drawn) [Compound 121, 21-N-{4′-[(3′-aminopropyl)amino]butyl}-17R,20S,24,25-tetrahydrofusid-21-amide]",4 µg/mL,,4 µg/mL,4 µg/mL,16 µg/mL,4 µg/mL,4 µg/mL,16 µg/mL,16 µg/mL,,16 µg/mL,64 µg/mL,16 µg/mL,16 µg/mL,4 µg/mL
"CC(C)CCCC(C(=O)NCCCNCCCCNCCCN)[C@@H]1CC[C@@]2(C)C1C[C@@H](O)C1[C@@]3(C)CC[C@@H](O)[C@@H](C)C3CC[C@@]12C (stereo partly drawn) [Compound 146, 21-N-{[3′-({4′-[(3′-aminopropyl)amino]butyl}amino)propyl]}-16-desacetoxy-17R,20S,24,25-tetrahydrofusid-21-amide]",1 µg/mL,,1 µg/mL,1 µg/mL,1 µg/mL,1 µg/mL,1 µg/mL,1 µg/mL,4 µg/mL,16 µg/mL,1 µg/mL,> 125 µg/mL,> 125 µg/mL,4 µg/mL,1 µg/mL
"CC(=O)O[C@H]1C[C@@]2(C)C(C[C@@H](O)C3[C@@]4(C)CC[C@@H](O)[C@@H](C)C4CC[C@@]32C)[C@@H]1[C@H](CCCC(C)C)C(=O)NCCCCNCCCNCCCCN (stereo partly drawn) [Compound 123, 21-N-[4′-({3′-[(4′-aminobutyl)amino]propyl}amino)butyl]-17R,20S,24,25-tetrahydrofasid-21-amide]",4 µg/mL,,4 µg/mL,4 µg/mL,4 µg/mL,4 µg/mL,4 µg/mL,4 µg/mL,16 µg/mL,16 µg/mL,4 µg/mL,4 µg/mL,16 µg/mL,16 µg/mL,4 µg/mL
"CC(=O)O[C@H]1C[C@@]2(C)C(CCC3[C@@]4(C)CC[C@@H](OS(=O)(=O)O)[C@@H](C)C4CC[C@@]32C)[C@@H]1[C@H](CCCC(C)C)C(=O)NCCCNCCCCNCCCN (stereo partly drawn) [Compound 177, 21-N-[3′-({4′-[(3′-aminopropyl)amino]butyl}amino)propyl]-3-OSO3-11-desoxy-17,20,24,25-tetrahydrofusid-21-amide]",1 µg/mL,,1 µg/mL,1 µg/mL,4 µg/mL,1 µg/mL,1 µg/mL,,125 µg/mL,16 µg/mL,4 µg/mL,16 µg/mL,64 µg/mL,16 µg/mL,1 µg/mL
"CC(=O)O[C@H]1C[C@@]2(C)C(C[C@@H](O)C3[C@@]4(C)CC[C@@H](O)[C@@H](C)C4CC[C@@]32C)[C@@H]1[C@H](CCCC(C)C)C(=O)NCCCNCCCCNCCCN (stereo partly drawn) [Compound 125, 21-N-[3′-({4′-[(3′-aminopropyl)amino]butyl}amino)propyl]-17R,20S,24,25-tetrahydrofusid-21-amide]",1 µg/mL,,1 µg/mL,1 µg/mL,4 µg/mL,1 µg/mL,1 µg/mL,16 µg/mL,16 µg/mL,16 µg/mL,1 µg/mL,16 µg/mL,16 µg/mL,16 µg/mL,1 µg/mL
CC(=O)O[C@H]1C[C@@]2(C)C(CCC3[C@@]4(C)CC[C@@H](OS(=O)(=O)O)[C@@H](C)C4CC[C@@]32C)[C@@H]1[C@H](CCCC(C)C)C(=O)NCCCNCCCNCCCN (stereo partly drawn) [Compound 180],1 µg/mL,,4 µg/mL,1 µg/mL,16 µg/mL,1 µg/mL,1 µg/mL,,125 µg/mL,64 µg/mL,1 µg/mL,4 µg/mL,64 µg/mL,16 µg/mL,1 µg/mL
CC(=O)O[C@H]1C[C@@]2(C)C(CCC3[C@@]4(C)CC[C@@H](O)[C@@H](C)C4CC[C@@]32C)[C@@H]1[C@H](CCCC(C)C)C(=O)NCCCNCCCN (stereo partly drawn) [Compound 131],4 µg/mL,,4 µg/mL,4 µg/mL,4 µg/mL,4 µg/mL,4 µg/mL,4 µg/mL,16 µg/mL,4 µg/mL,4 µg/mL,16 µg/mL,16 µg/mL,16 µg/mL,4 µg/mL
